From a melting point compilation (Tetko et al.; mined from patent text by program, amines drawn as free bases though some values may be those of a salt)

SMILES	melting point
COC(=O)c1cc2c3cc(OC)ccc3n(C)c2s1	124 to 125 °C
Nc1ncnc2c1nnn2C1C=CCC1 (stereo not given)	207 to 208 °C
O=C(O)c1ccc(-c2nc(-c3cc(C(F)(F)F)cc(C(F)(F)F)c3)co2)cc1	277 to 279 °C
C=C(c1ccc(C(=O)N(C)OC)cc1)C(O)(Cn1cncn1)c1ccc(F)cc1F (stereo not given)	154 to 156 °C
CC1(C)c2c(Cl)cccc2S(=O)(=O)N1CC=O	156 °C
CCNC(=O)Nc1nc2nc(NCCCN(C)C)ncc2cc1-c1c(C)cccc1C	64 to 70 °C
NC(=O)C1CCc2sc3ccc(F)cc3c2C1 (stereo not given)	201 to 202 °C
Ic1nc(-c2ccccn2)[nH]c1I	177 to 179 °C
COc1cc(N(C)C)ccc1CN1C(=O)C(C)(c2ccccc2Cl)c2cc(Cl)ccc21 (stereo not given)	135 °C
COc1cc2ccc(C=O)cc2cc1OC	87 to 88 °C
Cn1nc2ccccc2c1S(N)(=O)=O	181 to 183 °C
CCc1nnc(SCC2=C(C(=O)O)N3C(=O)C(NC(=O)Cc4csc(=O)s4)C3SC2)s1 (stereo not given)	155 °C
Nc1cnc(-c2ccccc2)nc1C(=O)O	199 to 202 °C
CN(C)c1nc2sc3c(NCc4ccccn4)ncnc3c2c2c1COC(C)(C)C2	217 to 218 °C
O=S1(=O)NCC2(OCCO2)c2ccc3ccccc3c21	202 to 204 °C
Nc1cccn2c(Cl)cnc12	126 to 127 °C
CS(=O)(=O)OCC(c1ccccc1)c1ccccc1	101 to 102 °C
COc1ccc(C=CC(=O)C=Cc2ccc(OC)cc2OC)c(OC)c1	138 to 140 °C
CCCCCCCC(=O)ON=C(c1ccccc1)c1cc(C(C)(C)C)c(O)c(C(C)(C)C)c1	76.3 to 77.2 °C
N#Cc1ccc([C@H]2CC[C@H](O)CC2)cc1	120 to 122 °C

SMILES	melting point
CCC(=O)NCC1CCC(Nc2nc3c(s2)CCOc2ccccc2-3)CC1 (stereo not given)	56 to 60 °C
COc1cc2ccnc(C=Cc3c(Cl)cccc3Cl)c2cc1OC	145 to 146 °C
CON=C1c2c(Cl)cc(Cl)c(-n3c(=O)cc(C(F)(F)F)n(C)c3=O)c2OC1(C)C	145 to 149 °C
CCCCCC(C)(C)NC(=O)CN1C(=O)c2ccccc2C1=O	142 °C
O=Cc1ccc(C#Cc2ccc(Cl)cc2)cc1	123 °C
Cc1cc(-c2ncn3c(C(F)(F)F)cc(-c4ccc(C(F)(F)F)c(C)c4)nc23)ccn1	243 °C
O=C1c2ccccc2C(=O)N1OCCCN1CCN(c2cccc(Cl)c2)CC1	140 to 142 °C
C[C@@H]1[C@@H](S(=O)(=O)c2ccccc2)[C@@H]2O[C@@H]2C[C@@H]1O	148 °C
COc1ccc(S(=O)(=O)n2ccc3ccnc(-c4cccs4)c32)cc1	112 to 114 °C
NC1=NC(c2ccc(OC(F)(F)F)cc2)(c2ccc(F)c(N3C=C(F)C=NC3)c2)C2=NCCCN12 (stereo not given)	94 to 105 °C
CCOC(=O)C1(CCCN)CCCCC1(O)c1ccccc1 (stereo not given)	130 to 133 °C
O=C(COc1ccc(NC(=O)OCCO)cc1)OCCOC(=O)COc1ccc(NC(=O)OCCO)cc1	158 to 161 °C
COc1ccc2cc(-c3cc(=O)oc4cc(O)ccc34)ccc2c1	223 to 225 °C
NCCCCCCCNC(=O)OCc1ccccc1	78 to 80 °C
CC(C)(C)c1ccc(C(=O)CCCN2CCC(O)CC2)cc1	63 to 65 °C
CC(C)c1cccc(C(C)C)c1NC(=O)NCC1=CCCc2ccccc21	170 to 171 °C
Cc1ccccc1C(C)Oc1cc(OCc2ccsc2)ccc1C(=O)CC(=O)C(=O)O (racemic)	124 to 126 °C
O=C(c1ccoc1)c1cccc(-c2c(O)c3ccc(Cl)cc3[nH]c2=O)c1	284 to 286 °C
CC(C)(C)n1cc(CN(Cc2cn(CCO)nn2)Cc2cn(C(C)(C)C)nn2)nn1	82 to 83 °C
CCOC(=O)C(Oc1cc(N)c(Cl)cc1C(=O)NCCN(CC)CC)c1ccccc1 (stereo not given)	84 to 87 °C
